Test results as given in patent publication US7700584B2 (Hangzhou Minsheng Pharmaceuticals Co., Ltd., priority 2004, dated 2010).
In brackets after ≈: the same amount, converted by molar mass. Like-named read-outs stand apart in the source and are kept apart here.

Key:
[1] = system: A-549 human lung adenocarcinoma; assay: In vitro anti-tumor IC50 (MTT), A-549; assay type: cell-based; conditions: Table 4
Description: (§1) (1) Single cell suspension was seeded into 96-well plates (the cells was diluted in the PRMI-1640 minimum medium to 3×10^4 cells/ml, […] diluted cells/well). […] The experiments were performed in quadruplicate.
(§2) (2) The medium was removed. Solutions of the anti-tumor agents (50 compounds) were prepared in a freshly prepared medium at serial concentrations. […] of the solution was added into each well. Incubation was continued for 48 hours.
(§3) (3) 20 ug of 2 mg/ml MTT was added into each well, and incubated for 4 hours.
(§4) (4) The medium was removed from the well. The microplates were swiftly turned down to throw-off the medium. […] of DMSO was added into each well, and vortexed at room temperature for 10 minutes.
(§5) (5) OD value (λ=570 nm) was measured with an Enzyme-Linked Detector.
(§6) (6) The graph of cell vitality was plotted, and IC50 was calculated.

[2] = system: mouse grafted sarcoma S-180; assay: Activity against mouse grafted sarcoma S-180; assay type: in vivo, Kunming mice; conditions: for Inhibition rate (%) / Tumor weight: 30 mg/kg i.v., 6 doses; for Tumor weight: X ± SD, n = 10
Description: (1) Experimental animals: Kunming mice weighting 18-22 g;
(2) 100 mg/ml solutions of the 3 compounds were prepared, respectively, in water for injection (1% surface surfactant was added into the solution of Compound 6). 5-FU and camptothecine, 30 mg/kg and 1 mg/kg, respectively, were used as positive controls;
3. Route of Administration: Intravenous Injection.
(§7) The experiments were performed according to “Guideline for New Drugs (Western medicines) in Pre-clinical Stages” issued by Bureau of Drug Policy & Administration of the People's Republic of China, and the relevant methods in “Methodology of Pharmaceutical Experiments”, Xu Shuyun et al. ed. 120 male Kunming mice weighting […] were allowed to grow 3 days. No abnormality was observed. The mice were routinely inoculated in oxter with mouse sarcoma S-180, and weighted 4 hrs. after inoculation. The mice were randomly divided into 12 groups, 10 mice/group. Group 1 was given 0.3 ml of physiological saline as negative control; Group 2 was given 5-FU as positive control, 0.6 mg/mouse; Group 3 was given hydroxycamptothecine as positive control, 0.02 mg/mouse. Groups 4, 5 and 6 were injected with 10% Compound 6, 0.4 ml/mouse, 0.2 ml/mouse, and 0.1 ml/mouse, respectively. Groups 7, 8 and 9 were injected with 10% Compound 8, 0.4 ml/mouse, 0.2 ml/mouse, and 0.1 ml/mouse, respectively. Groups 10, 11, and 12 were injected with 10% Compound 20, 0.4 ml/mouse, 0.2 ml/mouse, and 0.1 ml/mouse, respectively. The tested compounds were administered on the next day after inoculation, once a day on alternate days, 6 doses totally administered. On the next day after the end dose, the mice were weighed and sacrificed. After the tumor was excised, body weight and tumor weight were recorded. The tumor inhibition rate was calculated based on the following formula: [(average tumor weight of the control groups−average tumor weight of the experimental groups)/average tumor weight of the control groups]×100%. The data was processed statistically. The above experiments were repeated three times.

[3] = system: mouse lung cancer Lewis; assay: Activity against mouse grafted lung cancer Lewis; assay type: in vivo, Kunming mice; conditions: Lewis, 30 mg/kg; for Tumor weight: X ± SD, n = 10
Description: as §7
(§8) The experiments were identical with the experiments for activity against mouse grafted sarcoma S-180, except the following:
(1) the tumor cell line inoculated was mouse lung cancer Lewis;
(2) Compound 6, Compound 8 and Compound 21 were not tested for their activity;
(3) the mice were divided into six groups.

[4] = system: mouse grafted liver cancer H22; assay: Activity against mouse grafted liver cancer H22; assay type: in vivo, Kunming mice; conditions: for Tumor weight: X ± SD, n = 10
Description: as §7
The experiments were identical with the experiments for activity against mouse grafted sarcoma S-180, except that the cell line inoculated was liver cancer H22. The experiments were repeated three times.

[5] = system: MCF-7 human mammary adenocarcinoma; assay: In vitro anti-tumor IC50 (MTT), MCF-7; assay type: cell-based; conditions: Table 4
Description: as §1, §2, §3, §4, §5, §6

[6] = system: Bel-7402 human hepatic carcinoma; assay: In vitro anti-tumor IC50 (MTT), Bel-7402; assay type: cell-based; conditions: Table 4
Description: as §1, §2, §3, §4, §5, §6

[7] = system: mouse grafted uterine cervix cancer U14; assay: Activity against mouse grafted uterine cervix cancer U14; assay type: in vivo, Kunming mice; conditions: 30 mg/kg; for Tumor weight: X ± SD, n = 10
Description: as §7, §8
(1) the tumor cell line inoculated was mouse grafted uterine cervix cancer U14;
(2) all the mice were female.

[8] = system: HL-60 human promyelocytic leukemia; assay: In vitro anti-tumor IC50 (MTT), HL-60; assay type: cell-based; conditions: Table 4
Description: as §1, §2, §3, §4, §5, §6

[9] = system: Hela human cervical carcinoma; assay: In vitro anti-tumor IC50 (MTT), Hela; assay type: cell-based; conditions: Table 4
Description: as §1, §2, §3, §4, §5, §6

[10] = system: U-937 human histocytic lymphoma; assay: In vitro inhibition rate to tumor cells (MTT), U-937; assay type: cell-based; conditions: Homo sapiens, U-937, 50 μg/ml, read-out: inhibition rate, Results (%) U-937
[11] = system: Hela human cervical carcinoma; assay: In vitro inhibition rate to tumor cells (MTT), Hela; assay type: cell-based; conditions: Homo sapiens, HeLa, 50 μg/ml, read-out: inhibition rate, Results (%) Hela
[12] = system: LLC mouse Lewis lung carcinoma; assay: In vitro inhibition rate to tumor cells (MTT), LLC; assay type: cell-based; conditions: Mus musculus, Lewis lung carcinoma, 50 μg/ml
[13] = Solubility in water (observation); assay type: physicochemical
[14] = system: Bel-7402 human hepatic carcinoma; assay: In vitro inhibition rate to tumor cells (MTT), Bel-7402; assay type: cell-based; conditions: Homo sapiens, Bel-7402, 50 μg/ml, read-out: inhibition rate, Results (%) Bel-7402
[15] = system: SMMC-7721 human hepatic carcinoma; assay: In vitro inhibition rate to tumor cells (MTT), SMMC-7721; assay type: cell-based; conditions: Homo sapiens, SMMC-7721, 50 μg/ml, read-out: inhibition rate, Results (%) SMMC-7721
[16] = system: A-549 human lung adenocarcinoma; assay: In vitro inhibition rate to tumor cells (MTT), A-549; assay type: cell-based; conditions: Homo sapiens, A549, 50 μg/ml, read-out: inhibition rate, Results (%) A-549
[17] = system: HL-60 human promyelocytic leukemia; assay: In vitro inhibition rate to tumor cells (MTT), HL-60; assay type: cell-based; conditions: Homo sapiens, HL-60, 50 μg/ml, read-out: inhibition rate, Results (%) HL-60
[18] = system: MCF-7 human mammary adenocarcinoma; assay: In vitro inhibition rate to tumor cells (MTT), MCF-7; assay type: cell-based; conditions: Homo sapiens, MCF7, 50 μg/ml, read-out: inhibition rate, Results (%) MCF-7
[19] = system: influenza A virus (Jifang 90-15); assay: microbe, parasite or virus in culture; assay type: cell-based
[20] = system: MDCK (dog kidney) cells; assay: Toxicity TC50 of the samples in MDCK cells (influenza screening); conditions: concentration of 50% toxicity
[21] = system: influenza B virus (Jifang 97-13); assay: Screening for the activity against influenza B virus (CPE in MDCK cells)
[22] = H22, first experiment, 30 mg/kg i.v., 6 doses
[23] = H22, second experiment, 30 mg/kg
[24] = H22, third experiment, 30 mg/kg

Compound: O=c1[nH]cc(F)c(=O)[nH]1 [Compound 5-FU, reference compound]
- IC50 (ug/ml) against tumor cell lines, A-549 [1]: 0.7 µg/mL (≈ 5.38 µM)
- Inhibition rate (%) ([2]; S-180, first experiment): 71.2%
- Tumor weight ([2]; S-180, first experiment): 0.72 ± 0.23 g
- Inhibition rate (%) ([2]; S-180, second experiment): 69.6%
- Tumor weight ([2]; S-180, second experiment): 0.79 ± 0.33 g
- Average weight (g)-after administration ([2]; mouse, in vivo, iv, 30 mg/kg): 22.9 g
- Average weight(g)-after administration ([2]; mouse, in vivo, iv, 30 mg/kg): 21.9 g
- Inhibition rate (%) ([3]; first experiment): 55.0%
- Tumor weight ([3]; first experiment): 1.34 ± 0.31 g
- Inhibition rate (%) ([3]; second experiment): 54.3%
- Tumor weight ([3]; second experiment): 1.10 ± 0.31 g
- Inhibition rate (%) ([3]; third experiment): 53.7%
- Tumor weight ([3]; third experiment): 1.25 ± 0.31 g
- Inhibition rate (%) [4, 22]: 60.0%
- Tumor weight [4, 22]: 1.21 ± 0.31 g
- Inhibition rate (%) [4, 23]: 60.5%
- Tumor weight [4, 23]: 1.19 ± 0.31 g
- Inhibition rate (%) [4, 24]: 64.2%
- Tumor weight [4, 24]: 1.08 ± 0.31 g
- Average weight (g)-after administration ([4]; mouse, in vivo, 30 mg/kg): 20.3 g
- Average weight(g)-after administration ([4]; mouse, in vivo, 30 mg/kg): 21.3 g
- Average weight(g)-after administration ([4]; mouse, in vivo, iv, 30 mg/kg): 22.3 g
- IC50 (ug/ml) against tumor cell lines, MCF [5]: 1.53 µg/mL (≈ 11.8 µM)
- IC50 (ug/ml) against tumor cell lines, Bel-7402 [6]: 0.54 µg/mL (≈ 4.15 µM)
- Inhibition rate (%) ([7]; U14, first experiment): 40.2%
- Tumor weight ([7]; U14, first experiment): 2.10 ± 0.31 g
- Inhibition rate (%) ([7]; U14, second experiment): 42.6%
- Tumor weight ([7]; U14, second experiment): 1.95 ± 0.31 g
- Inhibition rate (%) ([7]; U14, third experiment): 42.0%
- Tumor weight ([7]; U14, third experiment): 2.10 ± 0.31 g
- Average weight (g)-after administration ([7]; mouse, in vivo): 21.0 g
- Average weight(g)-after administration ([7]; mouse, in vivo): 21.3 g
- IC50 (ug/ml) against tumor cell lines, HL-60 [8]: 0.51 µg/mL (≈ 3.92 µM)
- IC50 (ug/ml) against tumor cell lines, Hela [9]: 2.86 µg/mL (≈ 22 µM)

Compound: CC(C)C1CC23OC1(O)CC(O)(CO)C2CCC3C (centres unmarked) [Compound 32, Curcumol dihydroxy compound]
- inhibition at 50 µg/mL ([10]; Table 1): 65.3%
- inhibition at 50 µg/mL ([10]; Table 2 (repeated screening)): 67.2%
- inhibition at 50 µg/mL ([11]; Table 1): 84.3%
- inhibition at 50 µg/mL ([11]; Table 2 (repeated screening)): 80.1%
- inhibition at 50 µg/mL ([12]; Table 1): 7.27%
- inhibition at 50 µg/mL ([12]; Table 2 (repeated screening)): 7.05%
- solubility in water (in words) [13]: very big
- inhibition at 50 µg/mL ([14]; Table 1): 4.23%
- inhibition at 50 µg/mL ([14]; Table 2 (repeated screening)): 4.23%
- inhibition at 50 µg/mL ([15]; Table 1): 80%
- inhibition at 50 µg/mL ([15]; Table 2 (repeated screening)): 82.6%
- inhibition at 50 µg/mL ([16]; Table 1): -12.5%
- inhibition at 50 µg/mL ([16]; Table 2 (repeated screening)): -12.5%
- inhibition at 50 µg/mL ([17]; Table 1): 14%
- inhibition at 50 µg/mL ([17]; Table 2 (repeated screening)): 13.4%
- inhibition at 50 µg/mL ([18]; Table 1): 65.1%
- inhibition at 50 µg/mL ([18]; Table 2 (repeated screening)): 65%

Compound: NC(=O)c1ncn([C@@H]2O[C@H](CO)[C@@H](O)[C@H]2O)n1 [RBV]
- IC50, influenza A virus ([19]; CPE in MDCK cells): 2.06 µg/mL (≈ 8.44 µM)
- SI, influenza A virus ([19]; SI = TC50/IC50): 970.87
- TC50 [20]: >2000 µg/mL
- IC50, influenza B virus ([21]; CPE in MDCK cells): 6.17 µg/mL (≈ 25.3 µM)
- SI, influenza B virus ([21]; SI = TC50/IC50): 324.15
